Patent US9422545B2 (priority 2013, dated 2016)

Key:
virulent C. burnetii = test system: virulent C. burnetii; design: species or system Coxiella burnetii
1E4 = assay type: binding, mouse

Substance	number of dead bacteria (virulent C. burnetii)	inhibition index (A490 without PI-A490 with PI/A490 without PI) (1E4)
EDTA	significantly higher numbers of dead bacteria	
SPPWHKHELHRK [m1E44]		highest inhibition index
